Results published in PMC8112869, “Therapeutic inhibition of keratinocyte TRPV3 sensory channel by local anesthetic dyclonine” (eLife, 2021).

What was measured:
[1] = system: TRPV3+/+ and TRPV3-/- mice; test: Hot plate (55°C) paw withdrawal latency, Hargreaves test; type: in vivo, mouse
Procedure: All tests were conducted during the light phase of the light/dark cycle by a trained observer blind to the genotype. Mice were habituated to the testing room for 60 min prior to the behavioral tests unless otherwise stated. Hargreaves test was performed as described previously ([Wang et al., 2018]). All behavioral experiments were conducted in a double-blind manner. For measurement of thermal hyperalgesia, animals were placed individually, 30 min after injection, on a hot plate (Bioseb, Chaville, France) with the temperature adjusted to 55°C. The withdrawal latency of each hind paw was determined until nocifensive reaction appeared (licking foot). Right hind paws of mice were injected intraplantarly with 10 μl normal saline (0.9% NaCl). Left hind paws of mice were injected intraplantarly with 10 μl normal saline (supplemented with 10 or 50 μM dyclonine).

[2] = biological target: T1, mouse TRPV3 (Mus musculus, UniProt Q8K424); test: Voltage-step whole-cell recording of TRPV3 currents (40 μM 2-APB) in HEK 293T cells; type: cell-based; set-up: expressed in transfected cells; host or cells: HEK 293T; details: steps –160 to +180 mV, dyclonine 10, 30 μM, RR 10 μM
T1 sequence (Q8K424 1-791): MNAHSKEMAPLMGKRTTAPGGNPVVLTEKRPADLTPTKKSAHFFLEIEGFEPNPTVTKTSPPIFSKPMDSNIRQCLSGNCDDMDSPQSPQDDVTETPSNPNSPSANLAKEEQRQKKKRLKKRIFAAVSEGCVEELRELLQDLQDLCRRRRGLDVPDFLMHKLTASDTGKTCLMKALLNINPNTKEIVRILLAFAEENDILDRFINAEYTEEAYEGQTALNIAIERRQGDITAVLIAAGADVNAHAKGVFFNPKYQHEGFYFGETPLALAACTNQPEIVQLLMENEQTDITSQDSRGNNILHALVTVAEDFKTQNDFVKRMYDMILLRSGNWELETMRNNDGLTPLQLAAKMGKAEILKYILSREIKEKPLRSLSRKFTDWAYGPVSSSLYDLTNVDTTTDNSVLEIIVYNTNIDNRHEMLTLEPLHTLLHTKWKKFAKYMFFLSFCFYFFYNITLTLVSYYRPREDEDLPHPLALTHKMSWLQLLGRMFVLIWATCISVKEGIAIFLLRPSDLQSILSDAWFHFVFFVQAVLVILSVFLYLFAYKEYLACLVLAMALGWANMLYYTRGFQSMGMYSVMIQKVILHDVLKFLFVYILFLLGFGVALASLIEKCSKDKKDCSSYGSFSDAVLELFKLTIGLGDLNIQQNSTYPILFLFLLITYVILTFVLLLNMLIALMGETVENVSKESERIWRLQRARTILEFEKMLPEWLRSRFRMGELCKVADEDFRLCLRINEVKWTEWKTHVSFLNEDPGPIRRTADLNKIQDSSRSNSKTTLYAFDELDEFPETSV
Description: Conventional whole-cell and excised patch-clamp recording methods were used. For the recombinant expressing system, green fluorescent EGFP was used as a surface marker for gene expression. Recording pipettes were pulled from borosilicate glass capillaries (World Precision Instruments) and fire-polished to a resistance between 2 and 4 MΩ when filled with internal solution containing (in mM) 140 CsCl, 2.0 MgCl2, 5 EGTA, and 10 HEPES, pH 7.4 (adjusted with CsOH). Bath solution contained (in mM): 140 NaCl, 5 KCl, 3 EGTA, and 10 HEPES, pH 7.4 adjusted with NaOH. For recordings in keratinocytes, the bath saline consisted of (in mM) 140 NaCl, 5 KCl, 2 MgCl2, 2 CaCl2, 10 glucoses, and 10 HEPES, pH 7.4 adjusted with NaOH, and the pipette solution contained (in mM) 140 CsCl, 5 EGTA, and 10 HEPES, pH 7.3 adjusted with CsOH. […] For a subset of recordings, currents were amplified using an Axopatch 200B amplifier (Molecular Devices, Sunnyvale, CA) and recorded through a BNC-2090/MIO acquisition system (National Instruments, Austin, TX) using QStudio developed by Dr. Feng Qin at State University of New York at Buffalo. […] As determined by the conductance tests, the solution around a patch under study was fully controlled by the application of a flow rate of 100 μl/min or greater. […]

Structure (SMILES): CCCCOc1ccc(C(=O)CCN2CCCCC2)cc1 [dyclonine]
- paw withdrawal latencies (PWL) ([1]; TRPV3+/+ mice, intraplantar 10 μM dyclonine): 18.08 ± 0.03 s
- paw withdrawal latencies (PWL) ([1]; TRPV3+/+ mice, intraplantar 50 μM dyclonine): 18.82 ± 0.42 s
- paw withdrawal latencies (PWL) ([1]; TRPV3-/- mice, intraplantar 10 μM dyclonine): 18.23 ± 0.52 s
- paw withdrawal latencies (PWL) ([1]; TRPV3-/- mice, intraplantar 50 μM dyclonine): 18.61 ± 0.46 s
- effect on TRPV3-mediated inward and outward currents (voltage dependence) [2]: the inhibition occurred independently of the membrane potential
